Read-outs that look alike come from different tables or passages of the source.
What was measured:
HMGCR (TM1-8)-GFP [1] = biological target: T1, HMGCR (TM1-8)-GFP (Cricetulus griseus, UniProt P00347); assay: HMGCR (TM1-8)-GFP fluorescent assay (high-content imaging) in CHG cells
T1 sequence (P00347 1-346): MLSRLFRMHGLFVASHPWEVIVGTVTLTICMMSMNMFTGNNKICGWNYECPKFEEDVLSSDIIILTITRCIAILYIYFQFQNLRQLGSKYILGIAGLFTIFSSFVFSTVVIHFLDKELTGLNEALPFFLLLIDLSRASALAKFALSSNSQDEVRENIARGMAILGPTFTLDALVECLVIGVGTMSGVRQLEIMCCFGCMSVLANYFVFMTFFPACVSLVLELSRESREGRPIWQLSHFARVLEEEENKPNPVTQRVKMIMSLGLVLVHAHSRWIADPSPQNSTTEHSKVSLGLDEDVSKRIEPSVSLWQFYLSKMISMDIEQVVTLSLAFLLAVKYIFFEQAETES

HMGCR (TM1-8)-GFP [2] = biological target: T1, HMGCR (TM1-8)-GFP
[3] = 16 h, read-out: HMGCR (TM1-8)-GFP fluorescent intensity, mean
[4] = read-out: Mean (HMGCR (TM1-8)-GFP signal relative to 0 μM = 100)

Structure (SMILES) | remaining activity at 0.01 µM (HMGCR (TM1-8)-GFP [1]; [3]) | remaining activity at 0.03 µM (HMGCR (TM1-8)-GFP [1]; [3]) | remaining activity at 0.1 µM (HMGCR (TM1-8)-GFP [1]; [3]) | remaining activity at 0.3 µM (HMGCR (TM1-8)-GFP [1]; [3]) | remaining activity at 1 µM (HMGCR (TM1-8)-GFP [1]; [3]) | remaining activity at 3 µM (HMGCR (TM1-8)-GFP [1]; [3]) | remaining activity at 10 µM (HMGCR (TM1-8)-GFP [1]; [3]) | remaining activity at 20 µM (HMGCR (TM1-8)-GFP [1]; [3]) | DC50 (HMGCR (TM1-8)-GFP [2]) | remaining activity at 0.156 µM (HMGCR (TM1-8)-GFP [1]; [4]) | remaining activity at 0.313 µM (HMGCR (TM1-8)-GFP [1]; [4]) | remaining activity at 0.625 µM (HMGCR (TM1-8)-GFP [1]; [4]) | remaining activity at 1.25 µM (HMGCR (TM1-8)-GFP [1]; [4]) | remaining activity at 2.5 µM (HMGCR (TM1-8)-GFP [1]; [4]) | remaining activity at 5 µM (HMGCR (TM1-8)-GFP [1]; [4]) | remaining activity at 10 µM (HMGCR (TM1-8)-GFP [1]; [4]) | remaining activity at 30 µM (HMGCR (TM1-8)-GFP [1]; [3])
CC(C)CCC[C@@H](C)[C@H]1CC[C@H]2[C@@H]3[C@@H](O)C=C4C(C)(C)[C@@H](O)CC[C@]4(C)[C@H]3CC[C@]12C [Compound 35, 4,4-Dimethyl 7β-hydroxyl cholesterol] | 100% | 104% | 87.1% | 83.8% | 68.2% | 54.5% | 37% | 20% | 3600 nM | – | – | – | – | – | – | – | –
CCC(O)CCCC[C@@H](C)C1CCC2C3C(CC[C@@]21C)[C@@]1(C)CC[C@H](O)C(C)(C)C1=C[C@@H]3O (stereo partly drawn) [Compound 108] | – | – | – | – | – | – | – | – | 1030 nM | 90.7% | 77.2% | 56.5% | 39.2% | 29.4% | 25.5% | 18.6% | –
CCC(O)CCCCC[C@@H](C)C1CCC2C3C(CC[C@@]21C)[C@@]1(C)CC[C@H](O)C(C)(C)C1=C[C@@H]3O (stereo partly drawn) [Compound 125] | – | – | – | – | – | – | – | – | 1830 nM | 83.6% | 77.5% | 65.3% | 50.2% | 41.6% | 34.7% | 33.6% | –
C=CCC(O)CCCC[C@@H](C)C1CCC2C3C(CC[C@@]21C)[C@@]1(C)CC[C@H](O)C(C)(C)C1=C[C@@H]3O (stereo partly drawn) [Compound 109] | – | – | – | – | – | – | – | – | 910 nM | 91% | 76.5% | 54.8% | 36.4% | 23.5% | 18.8% | 25.2% | –
C[C@H](CCC(C)(C)O)C1CCC2C3C(CC[C@@]21C)[C@@]1(C)CC[C@H](O)C(C)(C)C1=C[C@@H]3O (stereo partly drawn) [Compound 56] | – | – | – | – | – | – | – | – | 52100 nM | 88.3% | 94.2% | 92.2% | 79.4% | 78.7% | 72.2% | 69.4% | –
CCC(O)(CC)CC[C@@H](C)C1CCC2C3C(CC[C@@]21C)[C@@]1(C)CC[C@H](O)C(C)(C)C1=C[C@@H]3O (stereo partly drawn) [Compound 57] | – | – | – | – | – | – | – | – | 1750 nM | 96.7% | 90.2% | 75.6% | 53.1% | 36.2% | 26% | 23.7% | –
CCC(O)CC[C@@H](C)C1CCC2C3C(CC[C@@]21C)[C@@]1(C)CC[C@H](O)C(C)(C)C1=C[C@@H]3O (stereo partly drawn) [Compound 64] | – | – | – | – | – | – | – | – | 3060 nM | 100% | 104% | 88.2% | 68.2% | 52.2% | 35.6% | 27% | –
CC(O)CCCCC[C@@H](C)C1CCC2C3C(CC[C@@]21C)[C@@]1(C)CC[C@H](O)C(C)(C)C1=C[C@@H]3O (stereo partly drawn) [Compound 124] | – | – | – | – | – | – | – | – | 920 nM | 88% | 78.3% | 62.2% | 38.2% | 19.5% | 14.7% | 21.8% | –
CC(O)CCC[C@@H](C)C1CCC2C3C(CC[C@@]21C)[C@@]1(C)CC[C@H](O)C(C)(C)C1=C[C@@H]3O (stereo partly drawn) [Compound 86] | – | – | – | – | – | – | – | – | 2170 nM | 96.6% | 88.8% | 78.7% | 64.4% | 44.4% | 28.4% | 19.7% | –
COCCC[C@@H](C)C1CCC2C3C(CC[C@@]21C)[C@@]1(C)CC[C@H](O)C(C)(C)C1=C[C@@H]3O (stereo partly drawn) [Compound 55] | – | – | – | – | – | – | – | – | 2290 nM | 100% | 100% | 83% | 63.8% | 43.1% | 28.5% | 21.9% | –
C[C@H](CCCCO)C1CCC2C3C(CC[C@@]21C)[C@@]1(C)CC[C@H](O)C(C)(C)C1=C[C@@H]3O (stereo partly drawn) [Compound 74] | – | – | – | – | – | – | – | – | 4520 nM | 96.8% | 94.2% | 92.9% | 83.2% | 62.6% | 44.4% | 33% | –
C=CCC(O)(CC=C)CCCC[C@@H](C)C1CCC2C3C(CC[C@@]21C)[C@@]1(C)CC[C@H](O)C(C)(C)C1=C[C@@H]3O (stereo partly drawn) [Compound 102] | – | – | – | – | – | – | – | – | 1920 nM | 108% | 104% | 86.9% | 56.5% | 37.2% | 31.7% | 31.8% | –
CC(O)CCCC[C@@H](C)C1CCC2C3C(CC[C@@]21C)[C@@]1(C)CC[C@H](O)C(C)(C)C1=C[C@@H]3O (stereo partly drawn) [Compound 107] | – | – | – | – | – | – | – | – | 1290 nM | 90.7% | 83.1% | 72.6% | 51.8% | 26.9% | 17.1% | 13.1% | –
C[C@H](CCCCC(C)(C)O)C1CCC2C3C(CC[C@@]21C)[C@@]1(C)CC[C@H](O)C(C)(C)C1=C[C@@H]3O (stereo partly drawn) [Compound 100] | – | – | – | – | – | – | – | – | 510 nM | 78.6% | 69.4% | 51.6% | 33.5% | 21.6% | 14.8% | 12.4% | –
CC(C)CCC[C@@H](C)[C@H]1CC[C@H]2[C@@H]3CC=C4C(C)(C)[C@@H](O)CC[C@]4(C)[C@H]3CC[C@]12C [Compound 7, 4,4-Dimethyl cholesterol] | 101% | – | 104% | 92.8% | 83.5% | 71.9% | 56.7% | 47.9% | 14600 nM | – | – | – | – | – | – | – | 35.9%
COC(=O)CC[C@@H](C)C1CCC2C3C(CC[C@@]21C)[C@@]1(C)CC[C@H](O)C(C)(C)C1=C[C@@H]3O (stereo partly drawn) [Compound 49] | – | – | – | – | – | – | – | – | 6670 nM | 93% | 100% | 100% | 93% | 78.9% | 58.3% | 37.6% | –
CC(C)CCC[C@@H](C)[C@H]1CCC2C3C(=NO)C=C4C(C)(C)[C@@H](O)CC[C@]4(C)C3CC[C@@]21C (stereo partly drawn) [Compound 34] | – | 99.1% | 103% | 93.6% | 75.2% | 65.6% | 62% | 65.8% | 60800 nM | – | – | – | – | – | – | – | 62.1%
C[C@H](CCCC(C)(C)O)C1CCC2C3C(CC[C@@]21C)[C@@]1(C)CC[C@H](O)C(C)(C)C1=C[C@@H]3O (stereo partly drawn) [Compound 79] | – | – | – | – | – | – | – | – | 640 nM | 87.9% | 77.2% | 59.3% | 38.6% | 23.5% | 16.1% | 12.2% | –
CC(C)CCC[C@@H](C)[C@H]1CCC2C3C(CC[C@@]21C)[C@@]1(C)CC[C@H](O)C(C)(C)C1=C[C@H]3O (stereo partly drawn) [Compound 36] | 106% | 91.7% | 108% | 91.3% | 93.6% | 69.8% | 58.6% | 37.2% | 11900 nM | – | – | – | – | – | – | – | –
COCCCC[C@@H](C)C1CCC2C3C(CC[C@@]21C)[C@@]1(C)CC[C@H](O)C(C)(C)C1=C[C@@H]3O (stereo partly drawn) [Compound 78] | – | – | – | – | – | – | – | – | 1850 nM | 105% | 98% | 81.1% | 60.7% | 36.9% | 21.4% | 15.7% | –
C[C@H](CCCCC(=O)O)C1CCC2C3C(CC[C@@]21C)[C@@]1(C)CC[C@H](O)C(C)(C)C1=C[C@@H]3O (stereo partly drawn) [Compound 92] | – | – | – | – | – | – | – | – | 12300 nM | 104% | 98.4% | 98.7% | 96.3% | 87% | 71.8% | 58% | –
C=CCC(O)CC[C@@H](C)C1CCC2C3C(CC[C@@]21C)[C@@]1(C)CC[C@H](O)C(C)(C)C1=C[C@@H]3O (stereo partly drawn) [Compound 65] | – | – | – | – | – | – | – | – | 2330 nM | 108% | 103% | 93.6% | 78.4% | 40.4% | 22.1% | 14% | –

Source: paper PMC6277434, “Discovery of a potent HMG-CoA reductase degrader that eliminates statin-induced reductase accumulation and lowers cholesterol” (Nature Communications, 2018)
